{"source": "patent US12473304B2", "about": "“Heterocyclic PAD4 inhibitors” (BRISTOL-MYERS SQUIBB COMPANY, priority 2020, dated 2025)", "note": "pIC50: −log10 of the molar value.", "data": [{"target": "human PAD4 (hPAD4) (Homo sapiens (Human), UniProt Q9UM07)", "sequence (Q9UM07 whole entry)": "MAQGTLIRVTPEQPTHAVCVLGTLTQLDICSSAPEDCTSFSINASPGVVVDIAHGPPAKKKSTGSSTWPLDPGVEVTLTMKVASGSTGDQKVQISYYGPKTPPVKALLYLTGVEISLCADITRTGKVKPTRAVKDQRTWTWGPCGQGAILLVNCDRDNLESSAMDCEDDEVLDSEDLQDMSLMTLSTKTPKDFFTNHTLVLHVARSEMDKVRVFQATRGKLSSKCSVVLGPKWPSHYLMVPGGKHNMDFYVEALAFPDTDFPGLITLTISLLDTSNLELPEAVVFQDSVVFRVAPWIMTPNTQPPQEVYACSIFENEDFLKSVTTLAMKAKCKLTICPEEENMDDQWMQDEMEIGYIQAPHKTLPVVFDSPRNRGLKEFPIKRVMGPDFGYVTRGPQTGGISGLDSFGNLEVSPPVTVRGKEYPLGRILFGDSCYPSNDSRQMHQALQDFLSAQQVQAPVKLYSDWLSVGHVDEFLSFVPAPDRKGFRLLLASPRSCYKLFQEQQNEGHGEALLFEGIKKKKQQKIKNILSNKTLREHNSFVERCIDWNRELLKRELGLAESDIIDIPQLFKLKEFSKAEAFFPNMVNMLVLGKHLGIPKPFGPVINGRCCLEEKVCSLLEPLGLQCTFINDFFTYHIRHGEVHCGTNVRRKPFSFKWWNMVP", "test": "RFMS Human PAD4 Functional Assay 1", "type": "biochemical", "details": "RFMS assay 1; 5 nM hPAD4, 250 μM BAEE substrate, 50 μM calcium, 37° C.", "experimental": "RFMS Human PAD4 Functional Assay 1:\nCompounds were solubilized in 100% DMSO to achieve all) mM compound concentration. Compound stock solutions were stored at RT. A series of dilutions were prepared in DMSO and mixed 8 times with 20 μL mixing volume. Final top concentration of compound in the assay is 50 μM. Final assay conditions were as follows: • Reaction volume: 26 μl • Assay buffer: 25 mM hepes, pH 7.5, 5 mM NaCl, 1 mM DTT, 0.2 mg/ml BSA, 0.01% CHAPS, 50 μM Calcium, and 5 μM TPEN • Final concentrations: 5 nM hPAD4 enzyme, 250 μM BASE, and 0.5% DMSO • Total incubation time: 30 mins compound and enzyme preincubation at 37° C., 90 min enzyme/substrate reaction, 30 min reaction with phenyl glyoxal at 37° C. • Stop solution: 40 μl 5% TCA in ACN\n0.13 μL of compound solution was added to 13 μL of 10 nM PAD4 in assay buffer. After 30 min 13 μl of 500 μM of BAEE was added in 25 mM hepes, pH 7.5, 5 mM NaCl, 1 mM DTT, 0.2 mg/ml BSA, 0.01% CHAPS, 50 μM Calcium, 5 μM TPEN was added and the reaction incubated for 90 min at 37° C. The enzymatic reaction was quenched by addition of 15 μl of 6.1N TCA, 100% Final Concentration is 20%, 35 μl of 8.5 mM phenyl glyoxal (final concentration 4 mM) is then added and the reaction is incubated for 30 min at 37° C.\nAfter 30 minutes the plates are spun down to remove all precipitate. The enzyme reaction was quenched with an equal volume of methanol containing internal standard (modified citrulline). Samples were loaded onto the Rapid Fire RF300 system (Agilent) wherein they were first sipped for 1000 ms and then directly loaded to a C18 separations cartridge using a mixture of acetonitrile containing 0.01% formic acid for 3000 ms desalting. The flow rate of the mobile phase was 1.5 ml/min. Once the samples were eluted from the cartridge, a mobile phase of acetonitrile containing 0.01% formic acid was used to move the samples into the mass spectrometer for 4000 ms at a flow rate of 1.25 ml/min/Sciex API5500 triple quadrupole mass spectrometer (Applied Biosystems) equipped with ESI was used to analyze the peptidyl citrulline and internal standard ions.\nMRM transition of product and internal standard were monitored at m/z 424.5 to 350.4 and m/z 293 to 247 respectively. The dwell time for each transition was set at 200 ms, and the ESI voltage was used at 5500 with a source temperature of 400° C. Extracted ion peaks for each transition were integrated using the Rapid Fire Integrator software. Peak area of analyte was normalized with internal standard.).", "values": [{"smiles": "Cc1c(-c2cc3cccc(C4CCN(C(=O)C5CC(O)C5)CC4)c3n2CC2CC2)nn2cc(C(=O)N3CC4CCC3[C@@H]4N)ccc12", "note": "(mixture of isomers) [Example 467, (4-(2-(6-((7R)-7-amino-2-azabicyclo[2.2.1]heptane-2-carbonyl)-3-methylpyrazolo[1,5-a]pyridin-2-yl)-1-(cyclopropylmethyl)-1H-indol-7-yl)piperidin-1-yl)(3-hydroxycyclobutyl)methanone]", "pIC50": 7.70}, {"smiles": "Cc1c(-c2cc3cc(F)cc(C4CCN(C(=O)C5CC(O)C5)CC4)c3n2CC2CC2)nn2cc(C(=O)N3CCC[C@@H](N)C3)ccc12", "note": "(mixture of isomers) [Example 492, (R)-(3-Aminopiperidin-1-yl)(2-(1-(cyclopropylmethyl)-5-fluoro-7-(1-(3-hydroxycyclobutane-1-carbonyl)piperidin-4-yl)-1H-indol-2-yl)-3-methylpyrazolo[1,5-a]pyridin-6-yl)methanone]", "pIC50": 6.89}, {"smiles": "Cc1c(-c2cc3cc(F)cc(C4CCN(C(=O)C5CC(O)C5)CC4)c3n2CC2CC2)nn2cc(C(=O)N3C[C@H](N)C[C@@H](F)C3)ccc12", "note": "(mixture of isomers) [Example 496, ((3R,5R)-3-Amino-5-fluoropiperidin-1-yl)(2-(1-(cyclopropylmethyl)-5-fluoro-7-(1-(3-hydroxycyclobutane-1-carbonyl)piperidin-4-yl)-1H-indol-2-yl)-3-methylpyrazolo[1,5-a]pyridin-6-yl)methanone]", "pIC50": 7.70}, {"smiles": "Cc1c(-c2cc3cc(F)cc(C4CCN(C(=O)C5CC(O)(C(F)(F)F)C5)CC4)c3n2CC2CC2)nn2cc(C(=O)N3C[C@H](N)C[C@@H](F)C3)ccc12", "note": "(mixture of isomers) [Example 505, ((3R,5R)-3-Amino-5-fluoropiperidin-1-yl)(2-(1-(cyclopropylmethyl)-5-fluoro-7-(1-(3-hydroxy-3-(trifluoromethyl)cyclobutane-1-carbonyl)piperidin-4-yl)-1H-indol-2-yl)-3-methylpyrazolo[1,5-a]pyridin-6-yl)methanone]", "pIC50": 7.22}, {"smiles": "Cc1c(-c2cc3cc(F)cc(C4CCN(C(=O)C5CCCCO5)CC4)c3n2CC2CC2)nn2cc(C(=O)N3CCC[C@@H](N)C3)ccc12", "note": "(mixture of isomers) [Example 508, ((R)-3-Aminopiperidin-1-yl)(2-(1-(cyclopropylmethyl)-5-fluoro-7-(1-(tetrahydro-2H-pyran-2-carbonyl)piperidin-4-yl)-1H-indol-2-yl)-3-methylpyrazolo[1,5-a]pyridin-6-yl)methanone]", "pIC50": 7.40}, {"smiles": "Cc1c(-c2cc3cc(F)cc(C4CCN(C(=O)C5CCCCO5)CC4)c3n2CC2CC2)nn2cc(C(=O)N3C[C@H](N)C[C@@H](F)C3)ccc12", "note": "(mixture of isomers) [Example 509, ((3R,5R)-3-Amino-5-fluoropiperidin-1-yl)(2-(1-(cyclopropylmethyl)-5-fluoro-7-(1-(tetrahydro-2H-pyran-2-carbonyl)piperidin-4-yl)-1H-indol-2-yl)-3-methylpyrazolo[1,5-a]pyridin-6-yl)methanone]", "pIC50": 6.46}, {"smiles": "COc1cc(C(=O)N2CCC[C@@H](N)C2)cn2nc(-c3cc4cccc(C5CN(C(=O)C6CC(O)(C(F)(F)F)C6)C5)c4n3CC3CC3)c(C)c12", "note": "(mixture of isomers) [Example 515, (R)-(3-Aminopiperidin-1-yl)(2-(1-(cyclopropylmethyl)-7-(1-(3-hydroxy-3-(trifluoromethyl)cyclobutane-1-carbonyl)azetidin-3-yl)-1H-indol-2-yl)-4-methoxy-3-methylpyrazolo[1,5-a]pyridin-6-yl)methanone]", "pIC50": 7.22}, {"smiles": "Cc1c(-c2cc3cccc(C4CN(C(=O)C5CC(O)(C(F)(F)F)C5)C4)c3n2CC2CC2)nn2cc(C(=O)N3CCC[C@@H](N)C3)ccc12", "note": "(mixture of isomers) [Example 535, (R)-(3-Aminopiperidin-1-yl)(2-(1-(cyclopropylmethyl)-7-(1-(3-hydroxy-3-(trifluoromethyl)cyclobutane-1-carbonyl)azetidin-3-yl)-1H-indol-2-yl)-3-methylpyrazolo[1,5-a]pyridin-6-yl)methanone]", "pIC50": 7.15}, {"smiles": "Cc1c(-c2cc3cccc(C4CN(C(=O)C5CCCCO5)C4)c3n2CC2CC2)nn2cc(C(=O)N3C[C@H](N)C[C@@H](F)C3)ccc12", "note": "(mixture of isomers) [Example 544, ((3R,5R)-3-Amino-5-fluoropiperidin-1-yl)(2-(1-(cyclopropylmethyl)-7-(1-(tetrahydro-2H-pyran-2-carbonyl)azetidin-3-yl)-1H-indol-2-yl)-3-methylpyrazolo[1,5-a]pyridin-6-yl)methanone]", "pIC50": 5.97}, {"smiles": "Cc1c(-c2cc3cccc(C4CN(C(=O)C5CCCCO5)C4)c3n2CC2CC2)nn2cc(C(=O)N3CCC[C@@H](N)C3)ccc12", "note": "(mixture of isomers) [Example 545, ((R)-3-Aminopiperidin-1-yl)(2-(1-(cyclopropylmethyl)-7-(1-(tetrahydro-2H-pyran-2-carbonyl)azetidin-3-yl)-1H-indol-2-yl)-3-methylpyrazolo[1,5-a]pyridin-6-yl)methanone]", "pIC50": 6.59}, {"smiles": "COc1cc(C(=O)N2CC3CCC2[C@@H]3N)cn2nc(-c3cc4ccnc(OCC5CNC(=O)C5)c4n3CC3CC3)c(C)c12", "note": "(mixture of isomers) [Example 608, 4-(((2-(6-((7R)-7-Amino-2-azabicyclo[2.2.1]heptane-2-carbonyl)-4-methoxy-3-methylpyrazolo[1,5-a]pyridin-2-yl)-1-(cyclopropylmethyl)-1H-pyrrolo[2,3-c]pyridin-7-yl)oxy)methyl)pyrrolidin-2-one (mixture of diastereomers)]", "pIC50": 8.00}, {"smiles": "Cc1c(-c2cc3ccc(C(C)(O)C(F)(F)F)nc3n2CC2CC2)nn2cc(C(=O)N3C[C@H](N)C[C@@H](F)C3)ccc12", "note": "(single isomer, unassigned) [Example 106]", "pIC50": 6.68}, {"smiles": "Cc1c(-c2cc3ccc(C(C)(O)C(F)(F)F)nc3n2CC2CC2)nn2cc(C(=O)N3C[C@H](N)C[C@@H](F)C3)ccc12", "note": "(single isomer, unassigned) [Example 107]", "pIC50": 6.62}, {"smiles": "COc1cc(C(=O)N2CCC[C@@H](N)C2)cn2nc(-c3cc4cccc(C5CCN(C(=O)C6CCCCO6)CC5)c4n3CC3CC3)c(C)c12", "note": "(single isomer, unassigned) [Example 386]", "pIC50": 7.10}, {"smiles": "COc1cc(C(=O)N2CCC[C@@H](N)C2)cn2nc(-c3cc4cccc(C5CCN(C(=O)C6CCCCO6)CC5)c4n3CC3CC3)c(C)c12", "note": "(single isomer, unassigned) [Example 387]", "pIC50": 6.64}, {"smiles": "COc1cc(C(=O)N2C[C@H](N)C[C@@H](F)C2)cn2nc(-c3cc4cccc(C5CCN(C(=O)C6CCCCO6)CC5)c4n3CC3CC3)c(C)c12", "note": "(single isomer, unassigned) [Example 388]", "pIC50": 7.15}, {"smiles": "COc1cc(C(=O)N2C[C@H](N)C[C@@H](F)C2)cn2nc(-c3cc4cccc(C5CCN(C(=O)C6CCCCO6)CC5)c4n3CC3CC3)c(C)c12", "note": "(single isomer, unassigned) [Example 389]", "pIC50": 7.52}, {"smiles": "COc1cc(C(=O)N2C[C@H](N)C[C@@H](F)C2)cn2nc(-c3cc4cccc(C5CCN(C(=O)C6CC(O)C6)CC5)c4n3CC3CC3)c(C)c12", "note": "(single isomer, unassigned) [Example 390]", "pIC50": 8.30}, {"smiles": "COc1cc(C(=O)N2CCC[C@@H](N)C2)cn2nc(-c3cc4cccc(C5CCN(C(=O)C6CC(O)C6)CC5)c4n3CC3CC3)c(C)c12", "note": "(single isomer, unassigned) [Example 392]", "pIC50": 8.52}]}]}
